Data published in BindingDB's records for doi:10.7270/Q2H130FK (Nmmlsc, 2007).
Where a name gives a salt, the structure may show the parent alone.

Target: T1, Integrin alpha-4 (Homo sapiens, UniProt P05556+P13612)
T1 sequence (P13612 whole entry): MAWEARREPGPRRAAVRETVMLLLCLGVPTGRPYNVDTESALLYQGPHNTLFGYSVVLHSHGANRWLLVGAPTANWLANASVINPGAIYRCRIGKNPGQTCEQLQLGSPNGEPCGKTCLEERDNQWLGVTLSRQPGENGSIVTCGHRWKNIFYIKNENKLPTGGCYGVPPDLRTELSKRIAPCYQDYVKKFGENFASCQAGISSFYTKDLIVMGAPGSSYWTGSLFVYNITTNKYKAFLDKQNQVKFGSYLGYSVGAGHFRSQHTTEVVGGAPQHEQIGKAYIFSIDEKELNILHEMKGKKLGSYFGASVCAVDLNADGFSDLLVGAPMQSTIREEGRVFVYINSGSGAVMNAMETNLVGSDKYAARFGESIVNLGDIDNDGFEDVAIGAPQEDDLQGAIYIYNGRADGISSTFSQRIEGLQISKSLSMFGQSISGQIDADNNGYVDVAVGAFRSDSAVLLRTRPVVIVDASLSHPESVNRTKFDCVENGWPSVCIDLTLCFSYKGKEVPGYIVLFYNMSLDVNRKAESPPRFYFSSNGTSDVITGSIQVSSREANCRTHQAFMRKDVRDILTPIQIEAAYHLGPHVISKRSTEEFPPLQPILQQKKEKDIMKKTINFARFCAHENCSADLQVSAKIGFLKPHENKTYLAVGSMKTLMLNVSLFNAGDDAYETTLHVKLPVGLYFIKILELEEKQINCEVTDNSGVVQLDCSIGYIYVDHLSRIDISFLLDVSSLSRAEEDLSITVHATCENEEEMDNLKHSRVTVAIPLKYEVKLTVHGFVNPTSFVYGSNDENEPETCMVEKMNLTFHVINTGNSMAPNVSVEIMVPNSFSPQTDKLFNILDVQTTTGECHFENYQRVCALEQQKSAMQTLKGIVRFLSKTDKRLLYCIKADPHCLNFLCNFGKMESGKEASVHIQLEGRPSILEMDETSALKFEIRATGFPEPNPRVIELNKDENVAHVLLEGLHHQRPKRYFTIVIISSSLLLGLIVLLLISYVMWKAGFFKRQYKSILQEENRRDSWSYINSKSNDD
Assay: inhibition of LDV ligand binding to VLA-4 – cell-based, LDV-FITC binding, flow cytometry, dose response (AID 702)

Row | SMILES | EC50 [µM]
1 | O=c1c(CC[S+]([O-])c2ccccc2)c(O)n(-c2ccccc2)n1-c1ccccc1 (centres undefined) [1,2-Diphenyl-3,5-dioxo-4-(2-phenylsulfinylethyl)pyrazolidine] | 17.3
2 | OC(CN1CCOCC1)CN(c1ccccc1)c1ccccc1 (centres undefined) [1-(4-morpholinyl)-3-(N-phenylanilino)-2-propanol;hydrochloride] | 4.13
3 | COc1ccc(-n2ncc3c(N4CCCc5ccccc54)ncnc32)cc1 [1-[1-(4-methoxyphenyl)-1H-pyrazolo[3,4-d]pyrimidin-4-yl]-1,2,3,4-tetrahydroquinoline] | 52.6
4 | CN1C(=S)SC(N(O)C(=O)Nc2ccccc2)C1(C)C (centres undefined) [1-hydroxy-3-phenyl-1-(3,4,4-trimethyl-2-sulfanylidene-1,3-thiazolidin-5-yl)urea] | 31.8
5 | CCOC(=O)c1cnc(-n2nc(C)cc2C)nc1NC(C)c1ccccc1 (centres undefined) [2-(3,5-dimethyl-1-pyrazolyl)-4-(1-phenylethylamino)-5-pyrimidinecarboxylic acid ethyl ester] | 100
6 | COCCNC(=O)C(c1ccncc1)N(C(=O)Cn1nnc2ccccc21)c1ccc(OC)cc1 (centres undefined) [2-(N-[2-(1-benzotriazolyl)-1-oxoethyl]-4-methoxyanilino)-N-(2-methoxyethyl)-2-pyridin-4-ylacetamide] | > 100
7 | Cc1csc(NC(=O)CSc2nsc(SCC(=O)Nc3nc(C)cs3)c2C#N)n1 [2-[[4-cyano-3-[2-[(4-methyl-1,3-thiazol-2-yl)amino]-2-oxidanylidene-ethyl]sulfanyl-1,2-thiazol-5-yl]sulfanyl]-N-(4-methyl-1,3-thiazol-2-yl)ethanamide] | 20.2
8 | CCCCc1c(O)n(-c2ccccc2)n(-c2ccccc2)c1=O [3,5-Dioxo-1,2-diphenyl-4-n-butylpyrazolidine] | 1.06
9 | COc1ccc(-c2coc3c(CN4CCCCC4)c(O)c(CN4CCCCC4)c(O)c3c2=O)cc1 [3-(4-methoxyphenyl)-5,7-bis(oxidanyl)-6,8-bis(piperidin-1-ylmethyl)chromen-4-one] | 100
10 | CCCCC1(C(=O)OCC)CC(CN2CCOCC2)OC1=O (centres undefined) [3-butyl-2-keto-5-(morpholinomethyl)tetrahydrofuran-3-carboxylic acid ethyl ester] | 6.5
11 | CCOC(=O)N1CCC(NC(=O)CSCc2nc(-c3ccc(OC)c(OC)c3)oc2C)CC1 [4-[[2-[[2-(3,4-dimethoxyphenyl)-5-methyl-4-oxazolyl]methylthio]-1-oxoethyl]amino]-1-piperidinecarboxylic acid ethyl ester] | 0.08
12 | Nc1nonc1C(=O)NCCN=Cc1cc(Cc2ccccc2)cc(Br)c1O [4-amino-N-[2-[[(E)-(3-benzyl-5-bromo-6-oxocyclohexa-2,4-dien-1-ylidene)methyl]amino]ethyl]-1,2,5-oxadiazole-3-carboxamide] | > 100
13 | Cc1ccc(C(=O)NCC(C)(C)O)cc1 [4-methyl-N-(2-methyl-2-oxidanyl-propyl)benzamide] | 2.34
14 | COc1ccc(-c2nnc(Nc3nc4c(OC)cccc4s3)o2)c(OC)c1 [5-(2,4-dimethoxyphenyl)-N-(4-methoxy-1,3-benzothiazol-2-yl)-1,3,4-oxadiazol-2-amine] | 2.84
15 | COc1cccc2sc(Nc3nnc(-c4ccc(F)cc4)o3)nc12 [5-(4-fluorophenyl)-N-(4-methoxy-1,3-benzothiazol-2-yl)-1,3,4-oxadiazol-2-amine] | 6.08
16 | NC(=O)c1cc(N)ccc1N1CCCC1 [5-Amino-2-pyrrolidin-1-yl-benzamide] | > 100
17 | Cc1ccccc1CS(=O)(=O)Cc1ccc(C(=O)NCc2ccccn2)o1 [5-[(2-methylbenzyl)sulfonylmethyl]-N-(2-pyridylmethyl)-2-furamide] | > 100

Row | SMILES | EC50 [µM]
18 | O=S1(=O)Nc2c(ccc3cccnc23)-c2ccccc21 [5H-quinolino[8,7-c][1,2]benzothiazine 6,6-dioxide] | 19.9
19 | Cc1cc(=O)oc2c(CN3CCC(C)CC3)c(O)c(Cl)cc12 [6-chloranyl-4-methyl-8-[(4-methylpiperidin-1-yl)methyl]-7-oxidanyl-chromen-2-one] | 4.6
20 | COc1cccc(N2CCN(c3ncnc4c3[nH]c3ccc(F)cc34)CC2C)c1 (centres undefined) [8-fluoranyl-4-[4-(3-methoxyphenyl)-3-methyl-piperazin-1-yl]-5H-pyrimido[5,4-b]indole] | 8.78
21 | CC(N=O)C(=O)NCc1ccccn1 (centres undefined) [(2E)-2-(hydroxyimino)-N-(pyridin-2-ylmethyl)propanamide] | 0.09
22 | COc1ccc(C(=O)Oc2ccc(C(C)=O)cc2)c(OC)c1 [(4-acetylphenyl) 2,4-dimethoxybenzoate] | 5.14
23 | COc1cccc2sc(Nc3nc(-c4ccccn4)cs3)nc12 [(4-methoxy-1,3-benzothiazol-2-yl)-[4-(2-pyridyl)thiazol-2-yl]amine] | 6.78
24 | COc1ccc(Nc2cc(C)nc3ccccc23)cc1 [(4-methoxyphenyl)-(2-methyl-4-quinolyl)amine;hydrochloride] | 4.27
25 | C#CCN(C)C(C)Cc1ccccc1 (centres undefined) [Deprenyl] | > 100
26 | CCOc1ccc2[nH]c(=O)c(CN(CC3COCCO3)C(=O)C3CC3)cc2c1 (centres undefined) [MLS000031787] | 45.1
27 | COc1ccc(-c2nnc(Nc3nc4c(OC)cccc4s3)o2)cc1 [MLS000045458] | 7.92
28 | O=S(=O)(Nc1cccc2ncccc12)c1cccs1 [MLS000057468] | 11.4
29 | COc1ccc(OC)c(NC(=O)CCN2CCCC(C)C2)c1 (centres undefined) [MLS000070519] | 14.1
30 | CCCOc1ccc(C(CC(=O)O)NC(=O)c2ccc3c(c2)OCO3)cc1 (centres undefined) [MLS000085916] | 11.2
31 | CCOC(=O)c1c(C)oc2c1c1c(c3ccccc32)OCN(Cc2ccccn2)C1 [MLS000566323] | 4.38
32 | COc1cccc2sc(Nc3nnc(-c4cccs4)o3)nc12 [MolPort-003-038-736] | 3.27
33 | CCOC(=O)c1sc(Nc2nc3c(OC)cccc3s2)nc1C [SMR000027213] | 33.9
34 | CCOc1ccc(-n2c(O)c(C=NCCN3CCNCC3)c(=O)[nH]c2=O)cc1 [SMR000057873] | 5.13
